Assay [1] in a line: General antimicrobial activity assay (whole-cell broth microdilution MIC, CLSI M7-A7). Format: cell-based. In general terms: Dilution methods test growth across graded concentrations, often in twofold steps.
Assay [2] relates to Mycobacterium tuberculosis H37Rv. Description: Mycobacterium tuberculosis H37Rv inhibition assay (resazurin MIC). The conditions noted are these: ATCC 25618 / H37Rv, read-out: MIC value. Format: cell-based. Background: Resazurin is reduced to fluorescent resorufin, in cell work by metabolically active cells.
The mark [3] stands for this setting: 144 h, H37Rv strain (ATCC25618), Middlebrook 7H9, 37° C., six days, resazurin fluorescence after 48 hours.
The mark [4] stands for this setting: H37Rv strain (ATCC25618), Middlebrook 7H9, 37° C., six days, resazurin fluorescence after 48 hours.

For twelve molecules, MIC results are on record in patent publication US20100184751A1, “HETEROCYCLIC COMPOUNDS FOR THE TREATMENT OF TUBERCULOSIS” (priority 2007, published 2010).

SMILES strings stand for the structures. Counter-ions that a name gives are not always drawn. Like-named read-outs stand apart in the source and are kept apart here.

Take `O=c1c(Cl)cc2ncc(F)c3c2n1CC3(O)CN1CCC(NCc2cc3c(cn2)OCCO3)CC1` (racemic) [Example 24, (4R/S)-8-Chloro-4-({4-[(2,3-dihydro[1,4]dioxino[2,3-c]pyridin-7-ylmethyl)amino]-1-piperidinyl}methyl)-3-fluoro-4-hydroxy-4,5-dihydro-7H-pyrrolo[3,2,1-de]-1,5-naphthyridin-7-one Dihydrochloride]: in assay [1], the MIC is less than 4 µg/mL.
In turn, `O=c1[nH]c2ccccc2nc1CNC1CCN(C[C@]2(O)Cn3c(=O)ccc4ncc(F)c2c43)CC1` [Example 38] had an MIC in assay [1] of less than 4 µg/mL.
Same read-out and setting: with `O=c1[nH]c(CNC2CCN(C[C@]3(O)Cn4c(=O)ccc5ncc(F)c3c54)CC2)nc2ccccc12` [Example 39] the figure was less than 4 µg/mL.
As for `CC(C)n1nnc2cc(CNC3CCN(C[C@]4(O)Cn5c(=O)ccc6ncc(F)c4c65)CC3)ccc21` [Example 47], the MIC in assay [1] is not above 8 µg/mL.
As for `O=c1ccc2ncc(F)c3c2n1C[C@@]3(O)CN1CCC(NCc2ccc3ccccc3n2)CC1` [Example 51, (4S)-3-fluoro-4-hydroxy-4-({4-[(2-quinolinylmethyl)amino]-1-piperidinyl}methyl)-4,5-dihydro-7H-pyrrolo[3,2,1-de]-1,5-naphthyridin-7-one], in assay [2] (setting [3]), the MIC is not above 4 µg/mL.
As for `O=c1ccc2ncc(F)c3c2n1C[C@@]3(O)CN1CCC(NCc2ccc3nnsc3c2)CC1` [Example 53, (4S)-4-({4-[(1,2,3-benzothiadiazol-6-ylmethyl)amino]-1-piperidinyl}methyl)-3-fluoro-4-hydroxy-4,5-dihydro-7H-pyrrolo[3,2,1-de]-1,5-naphthyridin-7-one], the MIC is not above 4 µg/mL in assay [2] (setting [3]) and not above 1.7 µg/mL in assay [2] (setting [4]).
For `O=c1ccc2ncc(F)c3c2n1C[C@@]3(O)CN1CCC(NCc2cc3cc(F)cc(F)c3[nH]2)CC1` [Example 54, (4S)-4-[(4-{[(5,7-difluoro-1H-indol-2-yl)methyl]amino}-1-piperidinyl)methyl]-3-fluoro-4-hydroxy-4,5-dihydro-7H-pyrrolo[3,2,1-de]-1,5-naphthyridin-7-one] the same measures were not above 4 µg/mL and not above 1.7 µg/mL.
Taken in the same sequence, the figures for `O=c1ccc2ncc(F)c3c2n1C[C@@]3(O)CN1CCC(NCc2cnc3snnc3c2)CC1` [Example 56, (4S)-3-fluoro-4-hydroxy-4-({4-[([1,2,3]thiadiazolo[5,4-b]pyridin-6-ylmethyl)amino]-1-piperidinyl}methyl)-4,5-dihydro-7H-pyrrolo[3,2,1-de]-1,5-naphthyridin-7-one] were not above 4 µg/mL and not above 1.7 µg/mL.
Molecule `COc1cnc2ccc(=O)n3c2c1[C@](O)(CN1CCC(NCc2cc4c(cn2)OCCO4)CC1)C3` [Example 65] came in with an MIC in assay [1] not above 8 µg/mL.
As to `COc1cnc2ccc(=O)n3c2c1[C@](O)(CN1CCC(NCc2cc4c(nn2)OCCO4)CC1)C3` [Example 66], in assay [1] (read-out: MIC values), the MIC is more than 16 µg/mL.
Turning to `O=c1ccc2ncc(F)c3c2n1C[C@@]3(O)CN1CCC(NCc2ncc3c(n2)OCCO3)CC1` [Example 69, (4S)-4-({4-[6,7-dihydro[1,4]dioxino[2,3-d]pyrimidin-2-ylmethyl]amino]-1-piperidinyl}methyl)-3-fluoro-4-hydroxy-4,5-dihydro-7H-pyrrolo[3,2,1-de]-1,5-napthyridin-7-one (E1 Enantiomer Series) Dihydrochloride], in assay [2] (setting [3]), the MIC is not above 4 µg/mL.
Consider `O=C1COc2cnc(CNC3CCN(C[C@]4(O)Cn5c(=O)ccc6ncc(F)c4c65)CC3)nc2N1` [Example 70, (4S)-3-fluoro-4-hydroxy-4-[(4-{[(7-oxo-6,7-dihydro-1H-pyrimido[5,4-b][1,4]oxazin-2-yl)methyl]amino}-1-piperidinyl)methyl]-4,5-dihydro-7H-pyrrolo[3,2,1-de]-1,5-naphthyridin-7-one Dihydrochloride], for which the values for the MIC in assay [2] (144 h) and in assay [2] were not above 4 µg/mL and not above 1.7 µg/mL, respectively.

One may read the MIC as the least concentration at which growth counts as inhibited.
